How the values were obtained:
[1] = test system: methicillin-resistant Staphylococcus aureus; assay: checkerboard assay, MIC; details: MRSA
[2] = test system: vancomycin-resistant Enterococcus faecalis; assay: checkerboard assay, MIC; details: VRE
[3] = test system: Acinetobacter baumannii; assay: inhibitory concentrations in hospital-acquired clinical wound isolates
[4] = test system: Francisella tularensis (rabbit fever); format: cell-based
[5] = test system: Enterococcus faecium; assay: inhibitory concentrations in hospital-acquired clinical wound isolates
[6] = test system: Vancomycin-resistant Enterococcus faecium (VRE); assay: inhibitory concentrations against drug-resistant bacteria (potentiation of vancomycin); details: at 16 μg/ml vancomycin
[7] = test system: Methicillin-resistant Staphylococcus aureus (MRSA); assay: inhibitory concentrations against drug-resistant bacteria (potentiation of methicillin); details: at 4 ug/ml methicillin
[8] = test system: Candida albicans; assay: inhibitory concentrations in hospital-acquired clinical wound isolates
[9] = test system: Pseudomonas aeruginosa; assay: as above
[10] = test system: Burkholderia pseudomallei (melioidosis); format: cell-based
[11] = test system: Bacillus anthracis (anthrax); format: cell-based
[12] = test system: S. aureus BAA-44; assay: MIC alone or in combination with tetracycline; details: for MIC: Staphylococcus aureus, BAA44
[13] = test system: Vancomycin-resistant Staphylococcus aureus (VRSA); assay: inhibitory concentrations against drug-resistant bacteria (potentiation of vancomycin); details: at 16 ug/ml vancomycin
[14] = test system: Staphylococcus aureus; assay: inhibitory concentrations in hospital-acquired clinical wound isolates
[15] = test system: Yersinia pestis (plague); format: cell-based

COc1ccc2cc3[n+](cc2c1OC)CCc1cc2c(cc1-3)OCO2 [Berberine, berberine, reference compound]
500 µg/mL: MIC [1] | MIC [2]

S=C(S)N1CCCC1 [PDTC, pyrrolidine dithiocarbamate]
6.25 µg/mL: Inhibitory concentration ([8]; clinical isolate Y-27022)
synergistic effect: effect of PDTC and tetracycline (FIG. 1) ([12]; combination with tetracycline)
12.5 µg/mL: Inhibitory concentration ([8]; clinical isolate Y-236) | Inhibitory concentration ([8]; clinical isolate Y-477) | Inhibitory concentration ([8]; clinical isolate Y-6359) | Inhibitory concentration ([8]; clinical isolate Y-12983) | Inhibitory concentration ([14]; clinical isolate 6108)
active: activity against biothreats [4] | activity against biothreats [10] | activity against biothreats [11] | activity against biothreats [15]
9 µg/mL: MIC [12]
62.5 µg/mL: MIC [1] | MIC [2]
50 µg/mL: Inhibitory concentration ([5]; clinical isolate 6080) | Inhibitory concentration ([5]; clinical isolate 6246) | Inhibitory concentration ([5]; clinical isolate 6831) | Inhibitory concentration ([6]; clinical isolate 6098) | Inhibitory concentration ([6]; clinical isolate 6185) | Inhibitory concentration ([6]; clinical isolate 6591) | Inhibitory concentration ([14]; clinical isolate B-767) | Inhibitory concentration ([14]; clinical isolate B-14358)
13 µg/mL: Inhibitory concentration ([7]; clinical isolate 6051) | Inhibitory concentration ([7]; clinical isolate 6544) | Inhibitory concentration ([7]; clinical isolate 6605) | Inhibitory concentration ([7]; clinical isolate 6607) | Inhibitory concentration ([13]; clinical isolate VRS 1) | Inhibitory concentration ([13]; clinical isolate VRS 9) | Inhibitory concentration ([13]; clinical isolate VRS 116)
100 µg/mL: Inhibitory concentration ([3]; clinical isolate 6043) | Inhibitory concentration ([3]; clinical isolate 6063) | Inhibitory concentration ([3]; clinical isolate 6175) | Inhibitory concentration ([3]; clinical isolate 6272) | Inhibitory concentration ([3]; clinical isolate 6838) | Inhibitory concentration ([9]; clinical isolate 5983) | Inhibitory concentration ([9]; clinical isolate 6162) | Inhibitory concentration ([9]; clinical isolate 6186) | Inhibitory concentration ([9]; clinical isolate 6295) | Inhibitory concentration ([9]; clinical isolate 6311)
25 µg/mL: Inhibitory concentration ([7]; clinical isolate 6006) | Inhibitory concentration ([14]; clinical isolate 6061) | Inhibitory concentration ([14]; clinical isolate B-313)

CN(C)[C@@H]1C(O)=C(C(N)=O)C(=O)[C@@]2(O)C(O)=C3C(=O)c4c(O)cccc4[C@@](C)(O)[C@H]3C[C@@H]12 [TET, tetracycline, reference compound]
32 µg/mL: MIC [12]

Source: patent publication US20170095502A1, “Antimicrobial Metal-Binding Polymers” (priority 2015, published 2017)
